Where a name gives a salt, the structure may show the parent alone.
How the values were obtained:
Cathepsin S [1] = target: T1, Cathepsin S (Homo sapiens, UniProt P25774); test: Cathepsin S assay procedure (inhibition of recombinant enzyme, fluorogenic substrate Z-Val-Val-Arg-AMC); assay type: biochemical; conditions: pH5.5, fluorescence at 20 minutes; read-out: pIC50 (negative logarithm of the IC50 concentration) for inhibition of human cathepsin S (converted)
Method: EXAMPLE 32 Cathepsin S assay procedure
25µl of a 2mg/l solution of activated recombinant human cathepsin S, in assay buffer, is then added to the well, yielding a final inhibitor concentration of 10µM.
Enzyme activity is determined by measuring the fluorescence of the liberated aminomethylcoumarin at […] using 390nm excitation, at 20 minutes. Percentage enzyme activity is calculated by comparison of this activity to that of a solution containing no inhibitor. Compounds are subsequently subjected to a dose response curve analysis in order to determine IC50 values for active compounds (where IC50 is the concentration of test compound causing 50 % inhibition of the enzymatic activity). Compounds of the invention typically have a pIC50 (negative logarithm of the IC50 concentration) for inhibition of human cathepsin S of more than 6. Most compounds of the invention have a pIC50 of more than 7, such as exemplified by the compounds of examples 1a, 1b, 2a, 7d, 12a, 14a, 14b, 14c, 14d, 14e, 14f, 14g, 14h, 14i, 17, 18.

Cathepsin S [2] = target: T1, Cathepsin S; test: Cell based lip10 assay (Lip10 accumulation, anti-CD74 ELISA); design: endogenous in cells; host or cells: Jiyoye human B lymphoblastoid cells; conditions: Human B lymphoblastoid cells (Jiyoye), 24 hours, relative to E64d / LHVS-treated cells; read-out: pEC50 (negative logarithm of the EC50 concentration) (converted)
Source text: In some cases, these cell based activities are up to 100 fold greater than previously disclosed compounds in WO 2007/080191.
EXAMPLE 34 Cathepsin S assay
During normal antigen presentation, Lip10 is proteolytically degraded to enable loading of a peptide fragment and subsequent MHC-II presentation on the surface of antigen presenting cells. The cleavage process is mediated by Cathepsin S. Thus, the Lip10 assay is an in vitro measure of a compound's ability to block cathepsin S and by extension antigen presentation. A compound that causes the accumulation of Lip10 at low concentration would be expected to block presentation of antigens.
Cell based lip10 assay procedure
Human B lymphoblastoid cells (Jiyoye) were cultured in RPMI 1640 medium at a density of 500 000 cells/ml in 24-well plates. Cells were treated with a concentration range of compounds (0.001-10µM) and vehicle alone (DMSO, 0.1% v/v). In order to generate positive control treatments separate wells were treated with 10µM E64d & 0.1µM LHVS. The cells were incubated at 37°C in a humidified incubator containing 5% CO2. After 24 hours the plates were centrifuged at 150 x g for five minutes and the media removed. Cells were lysed by adding 65µl of ice-cold phosphate buffered saline (PBS) containing 1% (v/v) Triton X-100 and protease inhibitors and incubated on ice for 20 minutes. The samples were centrifuged at 18 000 x g for 15 minutes at 4°C and the resulting supernatants collected and stored at -80°C until required. After measurement of protein concentration using a micro-BCA protein assay all samples were diluted to 10µg protein/ml and 50µl of each sample were coated overnight at 4°C onto wells of high protein-binding 96-well plates. The wells were washed once with PBS (200µl/well) and then incubated at room temperature for 2 hours with 10µg/ml mouse anti-CD74 Pin.1 monoclonal antibody (50µl/well) in PBS containing 0.05% (v/v) Tween-20 (PBS-T) and 2% (w/v) BSA (PBS-T/BSA). Unbound antibody was then removed by washing three times with PBS-T and followed by the addition of rabbit anti-mouse IgG antibody conjugated to horseradish peroxidase. After washing five times with PBS-T 100µl of tetramethylbenzidine substrate was added to each well and incubated for 10 minutes on a plate shaker. The reaction was stopped by the addition of 100µl of 1 M hydrochloric acid. Antibody binding was quantified by measuring the optical density (OD, 450nm) using a Molecular Devices Spectramax Plus. The OD of vehicle-only treated cells was removed from all values and the data was expressed as a percentage of the OD generated from the mean E64d / LHVS-treated cells. The potency of compounds (EC50) was measured by calculating the concentration of inhibitor required to generate 50% inhibition relative to E64d / LHVS-treated cells.

T1 sequence (P25774 115-331): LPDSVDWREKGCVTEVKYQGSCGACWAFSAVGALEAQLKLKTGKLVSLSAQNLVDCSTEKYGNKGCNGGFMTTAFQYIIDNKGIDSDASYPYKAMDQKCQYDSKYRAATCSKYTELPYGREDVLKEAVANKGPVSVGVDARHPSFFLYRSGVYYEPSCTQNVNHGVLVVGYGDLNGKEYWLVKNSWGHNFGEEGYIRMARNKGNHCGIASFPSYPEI

IC50 (Cathepsin S [1]) [nM]	EC50 (Cathepsin S [2]) [nM]	SMILES
< 100		CC(=O)NCCCOc1ccc(-c2cc3c(ncn3C)c(C#N)n2)cc1C(F)(F)F [Example 1b, 6-[4-(3-acetylaminopropoxy)-3-(trifluoromethyl)-phenyl]-1-methyl-1H-imidazo[4,5-c]pyridine-4-carbonitrile]
< 100	< 100	Cn1cnc2c(C#N)nc(-c3ccc(OCCC4CCN(Cc5ncco5)CC4)c(C(F)(F)F)c3)cc21 [Example 14a, 1-methyl-6-(4-(2-(1-(oxazol-2-ylmethyl)piperidin-4-yl)ethoxy)-3-(trifluoromethyl)phenyl)-1H-imidazo[4,5-c]pyridine-4-carbonitrile hydrochloride]
< 100		CC(=O)N(C)CCOc1ccc(-c2cc3c(ncn3C)c(C#N)n2)cc1C(F)(F)F [Example 7d, 1-methyl-6-(4-(2-(N-acetyl-N-methylamino)ethoxy)-3-(trifluoromethyl)phenyl)-1H-imidazo[4,5-c]pyridine-4-carbonitrile]
< 100	< 100	CCN(C)c1cc(COc2ccc(-c3cc4c(ncn4C)c(C#N)n3)cc2C(F)(F)F)ccn1 [Example 12a, 1-Methyl-6-{4-[(2-(N-ethyl-N-methylamino)-pyridin-4-yl)-methoxy]-3-(trifluoromethyl)-phenyl}-1H-imidazo[4,5-c]pyridine-4-carbonitrile Hydrocloride]
< 100	< 100	Cc1cc(CN2CCC(CCOc3ccc(-c4cc5c(ncn5C)c(C#N)n4)cc3C(F)(F)F)CC2)no1 [Example 14b, 1-methyl-6-(4-(2-(1-((5-methylisoxazol-3-yl)methyl)piperidin-4-yl)ethoxy)-3-(trifluoromethyl)phenyl)-1H-imidazo[4,5-c]pyridine-4-carbonitrile]
	< 100	CCNc1cc(COc2ccc(-c3cc4c(ncn4C)c(C#N)n3)cc2C(F)(F)F)ccn1 [Example 12b, 1-Methyl-6-{4-[(2-(N-ethylamino)-pyridin-4-yl)-methoxy]-3-(trifluoromethyl)-phenyl}-1H-imidazo[4,5-c]pyridine-4-carbonitrile]
< 100	< 100	CN(C)C(=O)CN1CCC(CCOc2ccc(-c3cc4c(ncn4C)c(C#N)n3)cc2C(F)(F)F)CC1 [Example 14d, 6-(4-(2-(1-(2-dimethylamino-2-oxo-ethyl)piperidin-4-yl)ethoxy)-3-(trifluoromethyl)phenyl)-1-methyl-1H-imidazo[4,5-c]pyridine-4-carbonitrile]
< 100		COCCN1CCC(CCOc2ccc(-c3cc4c(ncn4C)c(C#N)n3)cc2C(F)(F)F)CC1 [Example 14h, 6-(4-(2-(1-(2-methoxyethyl)piperidin-4-yl)ethoxy)-3-(trifluoromethyl)phenyl)-1-methyl-1H-imidazo[4,5-c]pyridine-4-carbonitrile]
< 100		Cn1cnc2c(C#N)nc(-c3ccc(OCCC4CCN(CCF)CC4)c(C(F)(F)F)c3)cc21 [Example 14f, 6-(4-(2-(1-(2-fluoroethyl)piperidin-4-yl)ethoxy)-3-(trifluoromethyl)phenyl)-1-methyl-1H-imidazo[4,5-c]pyridine-4-carbonitrile]
	< 100	CNc1cc(COc2ccc(-c3cc4c(ncn4C)c(C#N)n3)cc2C(F)(F)F)ccn1 [Example 12c, 1-Methyl-6-{4-[(2-(N-methylamino)-pyridin-4-yl)-methoxy]-3-(trifluoromethyl)-phenyl}-1H-imidazo[4,5-c]pyridine-4-carbonitrile]
< 100		Cn1cnc2c(C#N)nc(-c3ccc(OCCN4C=NC(C)(C)C4=O)c(C(F)(F)F)c3)cc21 [Example 18, 6-(4-(2-(4,4-dimethyl-5-oxo-4,5-dihydro-1H-imidazol-1-yl)ethoxy)-3-(trifluoromethyl)phenyl)-1-methyl-1H-imidazo[4,5-c]pyridine-4-carbonitrile TFA salt]
< 100	< 100	Cc1noc(C)c1CN1CCC(CCOc2ccc(-c3cc4c(ncn4C)c(C#N)n3)cc2C(F)(F)F)CC1 [Example 14c, 6-(4-(2-(1-((3,5-dimethylisoxazol-4-yl)methyl)piperidin-4-yl)ethoxy)-3-(trifluoromethyl)phenyl)-1-methyl-1H-imidazo[4,5-c]pyridine-4-carbonitrile]
< 100		CC(=O)N(C)CCCOc1ccc(-c2cc3c(ncn3C)c(C#N)n2)cc1C(F)(F)F [Example 2a, 6-{4-[3-(N-acetyl-N-methylamino)propoxy]-3-(trifluoromethyl)-phenyl}-1-methyl-1H-imidazo[4,5-c]pyridine-4-carbonitrile]
< 100		Cn1cnc2c(C#N)nc(-c3ccc(OCCC4CCN(CC(F)F)CC4)c(C(F)(F)F)c3)cc21 [Example 14g, 6-(4-(2-(1-(2,2-difluoroethyl)piperidin-4-yl)ethoxy)-3-(trifluoromethyl)phenyl)-1-methyl-1H-imidazo[4,5-c]pyridine-4-carbonitrile]
< 100		Cn1cnc2c(C#N)nc(-c3ccc(OCCCNS(C)(=O)=O)c(C(F)(F)F)c3)cc21 [Example 1a, N-(3-(4-(4-cyano-1-methyl-1H-imidazo[4,5-c]pyridin-6-yl)-2-(trifluoromethyl)phenoxy)propyl)methanesulfonamide]
< 100		Cn1cnc2c(C#N)nc(-c3ccc(OCCC4CCN(CC(=O)N5CCCC5)CC4)c(C(F)(F)F)c3)cc21 [Example 14e, 6-(4-(2-(1-(2-oxo-2-(pyrrolidin-1-yl)ethyl)piperidin-4-yl)ethoxy)-3-(trifluoromethyl)phenyl)-1-methyl-1H-imidazo[4,5-c]pyridine-4-carbonitrile]
< 100		Cn1cnc2c(C#N)nc(-c3ccc(OCCC4CCN(Cc5nccs5)CC4)c(C(F)(F)F)c3)cc21 [Example 14i, 1-methyl-6-(4-(2-(1-(thiazol-2-ylmethyl)piperidin-4-yl)ethoxy)-3-(trifluoromethyl)-phenyl)-1H-imidazo[4,5-c]pyridine-4-carbonitrile]

Reference: patent publication EP2387573B1, “6-PHENYL-1H-IMIDAZO[4,5-C]PYRIDINE-4-CARBONITRILE DERIVATIVES AS CATHEPSIN S AND/OR CATHEPSIN K INHIBITORS” (Organon BioSciences Nederland B.V., priority 2009, dated 2010)
